# ChEMBL document CHEMBL5113463, “Discovery and preclinical evaluations of JBD0131, a novel nitrodihydro-imidazooxazole anti-tuberculosis agent” (Bioorg Med Chem Lett, 2022)
# Active and inactive are the calls of the source. The calls are words filed in the database; no cut-off is given here.
# What was measured:
# [1] = system: Mycobacterium tuberculosis; experiment: Antimycobacterial activity against clinical isolate drug susceptible Mycobacterium tuberculosis H37Rv assessed as bacterial growth inhibition; type: functional
# [2] = Volume of distribution in CD-1 mouse at 0.6 mg/kg, iv; type: ADME, organism-based; conditions: in vivo
# [3] = Cmax in CD-1 mouse at 5 mg/kg, po; type: ADME, organism-based; set-up: dose 5 mg/kg, route po; conditions: in vivo
# [4] = Half life in CD-1 mouse at 0.6 mg/kg, iv; type: ADME, organism-based; conditions: in vivo
# [5] = Cytotoxicity against African green monkey vero cells assessed as reduction in cell viability; type: toxicity, cell-based; conditions: chlorocebus sabaeus
# [6] = system: Mycobacterium tuberculosis; experiment: Antimycobacterial activity against Mycobacterium tuberculosis H37Rv assessed as bacterial growth inhibition incubated for 7 days by MABA assay; type: functional; conditions: 168 h, time 7 day
# [7] = AUC (0-last) in CD-1 mouse at 5 mg/kg, po; type: ADME, organism-based; set-up: dose 5 mg/kg, route po; conditions: in vivo
# [8] = Oral bioavailability in CD-1 mouse at 5 mg/kg; type: ADME, organism-based; conditions: in vivo
# [9] = system: Mycobacterium tuberculosis; experiment: In vivo antimycobacterial activity against Mycobacterium tuberculosis Erdman infected mouse acute tuberculosis infection model assessed as reduction lung bacterial load by measuring CFU at 15 mg/kg for 3 weeks at 5 days/week; type: functional, organism-based
# [10] = Clearance in CD-1 mouse at 0.6 mg/kg, iv; type: ADME, organism-based; conditions: in vivo
# [11] = Metabolic stability in human liver microsomes assessed as half life; type: ADME, Microsome
# [12] = Metabolic stability in mouse liver microsomes assessed as half life; type: ADME, Microsome
# [13] = system: Mycobacterium tuberculosis; experiment: Antimycobacterial activity against Mycobacterium tuberculosis H37Rv assessed as bacterial growth inhibition incubated for 10 days under hypoxic condition followed by 28 hrs incubation under normoxic condition by Low-Oxygen-Recovery Assay; type: functional; conditions: 264 h, time 11 day
# [14] = Metabolic stability in rat liver microsomes assessed as half life; type: ADME, Microsome
# Cytochrome P450 3A4 = Cytochrome P450 3A4 (Homo sapiens, UniProt P08684); experiment: Inhibition of CYP3A4 (unknown origin); type: ADME
# [15] = Plasma protein binding in human assessed as bound fraction; type: ADME, cell-free; conditions: read-out: PPB (converted)
# [16] = Plasma protein binding in mouse assessed as bound fraction; type: ADME, cell-free; conditions: read-out: PPB (converted)
# [17] = Plasma protein binding in rat assessed as bound fraction; type: ADME, cell-free; conditions: read-out: PPB (converted)
# [18] = Plasma protein binding in dog assessed as bound fraction; type: ADME, cell-free, Canis lupus familiaris; conditions: read-out: PPB (converted)
# Cytochrome P450 1A2 = molecular target: T1, Cytochrome P450 1A2 (Homo sapiens, UniProt P05177); experiment: Inhibition of CYP1A2 (unknown origin); type: ADME
# T1 sequence (P05177 whole entry): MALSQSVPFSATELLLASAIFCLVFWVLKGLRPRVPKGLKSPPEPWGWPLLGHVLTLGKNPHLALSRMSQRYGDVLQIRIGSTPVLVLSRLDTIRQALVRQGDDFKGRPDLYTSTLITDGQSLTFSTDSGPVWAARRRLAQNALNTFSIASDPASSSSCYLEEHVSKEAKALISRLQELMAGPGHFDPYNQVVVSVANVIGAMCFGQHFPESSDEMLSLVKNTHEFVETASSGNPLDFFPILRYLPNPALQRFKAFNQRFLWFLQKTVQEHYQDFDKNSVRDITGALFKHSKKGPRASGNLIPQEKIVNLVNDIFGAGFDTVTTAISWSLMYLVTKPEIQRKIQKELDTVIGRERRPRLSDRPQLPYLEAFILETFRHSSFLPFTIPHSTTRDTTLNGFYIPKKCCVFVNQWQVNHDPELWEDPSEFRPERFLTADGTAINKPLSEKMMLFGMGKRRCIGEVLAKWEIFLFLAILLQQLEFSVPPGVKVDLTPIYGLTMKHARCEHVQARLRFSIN
# [19] = system: Mycobacterium tuberculosis; experiment: In vivo antimycobacterial activity against Mycobacterium tuberculosis Erdman infected mouse acute tuberculosis infection model assessed as reduction lung bacterial loads by measuring CFU at 10 to 100 mg/kg for 3 weeks at 5 days/week; type: functional, organism-based; conditions: dose 10-100 mg/kg, DDE = dose-dependent effect
# [20] = Apparent permeability across apical to basolateral side in dog MDCK cells; type: ADME, cell-based, Canis lupus familiaris
# Cytochrome P450 2C8 = molecular target: T2, Cytochrome P450 2C8 (Homo sapiens, UniProt P10632); experiment: Inhibition of CYP2C8 (unknown origin); type: ADME
# T2 sequence (P10632 whole entry): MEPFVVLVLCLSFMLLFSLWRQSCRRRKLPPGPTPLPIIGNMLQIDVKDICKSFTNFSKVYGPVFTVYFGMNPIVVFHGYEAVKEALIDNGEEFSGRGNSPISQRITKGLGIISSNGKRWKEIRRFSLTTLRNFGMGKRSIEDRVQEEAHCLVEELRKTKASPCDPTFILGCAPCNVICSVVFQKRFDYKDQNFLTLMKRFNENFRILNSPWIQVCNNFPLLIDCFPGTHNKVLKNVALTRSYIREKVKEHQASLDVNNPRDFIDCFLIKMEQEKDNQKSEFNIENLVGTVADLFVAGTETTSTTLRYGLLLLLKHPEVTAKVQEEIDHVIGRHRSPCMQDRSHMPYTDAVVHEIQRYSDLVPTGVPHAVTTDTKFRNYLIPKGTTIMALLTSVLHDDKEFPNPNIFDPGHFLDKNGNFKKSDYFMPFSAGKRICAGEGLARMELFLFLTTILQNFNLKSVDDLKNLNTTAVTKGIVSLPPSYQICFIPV
# Cytochrome P450 2D6 = Cytochrome P450 2D6 (Homo sapiens, UniProt P10635); experiment: Inhibition of CYP2D6 (unknown origin); type: ADME
# Cytochrome P450 2C9 = Cytochrome P450 2C9 (Homo sapiens, UniProt P11712); experiment: Inhibition of CYP2C9 (unknown origin); type: ADME
# [21] = system: Mycobacterium tuberculosis; experiment: In vivo antimycobacterial activity against Mycobacterium tuberculosis Erdman infected mouse chronic tuberculosis infection model assessed as reduction log10 CFU at 10 to 100 mg/kg for 4 weeks at 5 days/week administered after 31 days post infection relative to control; type: functional; conditions: dose 10-100 mg/kg
# Cytochrome P450 2B6 = molecular target: T3, Cytochrome P450 2B6 (Homo sapiens, UniProt P20813); experiment: Inhibition of CYP2B6 (unknown origin); type: ADME
# T3 sequence (P20813 whole entry): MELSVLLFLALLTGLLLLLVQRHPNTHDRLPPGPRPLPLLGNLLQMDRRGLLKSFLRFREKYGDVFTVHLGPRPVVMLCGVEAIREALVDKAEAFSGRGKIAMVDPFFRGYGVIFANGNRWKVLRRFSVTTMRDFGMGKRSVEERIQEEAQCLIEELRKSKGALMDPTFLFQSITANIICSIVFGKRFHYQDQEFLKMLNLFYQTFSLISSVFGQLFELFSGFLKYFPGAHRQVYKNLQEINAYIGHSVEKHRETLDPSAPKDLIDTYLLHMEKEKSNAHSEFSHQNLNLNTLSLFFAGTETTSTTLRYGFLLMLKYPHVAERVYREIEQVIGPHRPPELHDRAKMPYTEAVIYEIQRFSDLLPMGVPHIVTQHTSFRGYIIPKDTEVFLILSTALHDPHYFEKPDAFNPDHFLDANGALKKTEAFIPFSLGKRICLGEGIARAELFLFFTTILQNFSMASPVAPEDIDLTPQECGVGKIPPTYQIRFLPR
# Cytochrome P450 2C19 = Cytochrome P450 2C19 (Homo sapiens, UniProt P33261); experiment: Inhibition of CYP2C19 (unknown origin); type: ADME
# [22] = molecular target: Voltage-gated inwardly rectifying potassium channel KCNH2 (Homo sapiens, UniProt Q12809); experiment: Inhibition of human ERG; type: toxicity
# [23] = system: Mycobacterium tuberculosis; experiment: Antimycobacterial activity against Mycobacterium tuberculosis Erdman assessed as bacterial growth inhibition; type: functional
# Chain of Voltage-gated inwardly rectifying potassium channel KCNH2 (Q12809 whole entry): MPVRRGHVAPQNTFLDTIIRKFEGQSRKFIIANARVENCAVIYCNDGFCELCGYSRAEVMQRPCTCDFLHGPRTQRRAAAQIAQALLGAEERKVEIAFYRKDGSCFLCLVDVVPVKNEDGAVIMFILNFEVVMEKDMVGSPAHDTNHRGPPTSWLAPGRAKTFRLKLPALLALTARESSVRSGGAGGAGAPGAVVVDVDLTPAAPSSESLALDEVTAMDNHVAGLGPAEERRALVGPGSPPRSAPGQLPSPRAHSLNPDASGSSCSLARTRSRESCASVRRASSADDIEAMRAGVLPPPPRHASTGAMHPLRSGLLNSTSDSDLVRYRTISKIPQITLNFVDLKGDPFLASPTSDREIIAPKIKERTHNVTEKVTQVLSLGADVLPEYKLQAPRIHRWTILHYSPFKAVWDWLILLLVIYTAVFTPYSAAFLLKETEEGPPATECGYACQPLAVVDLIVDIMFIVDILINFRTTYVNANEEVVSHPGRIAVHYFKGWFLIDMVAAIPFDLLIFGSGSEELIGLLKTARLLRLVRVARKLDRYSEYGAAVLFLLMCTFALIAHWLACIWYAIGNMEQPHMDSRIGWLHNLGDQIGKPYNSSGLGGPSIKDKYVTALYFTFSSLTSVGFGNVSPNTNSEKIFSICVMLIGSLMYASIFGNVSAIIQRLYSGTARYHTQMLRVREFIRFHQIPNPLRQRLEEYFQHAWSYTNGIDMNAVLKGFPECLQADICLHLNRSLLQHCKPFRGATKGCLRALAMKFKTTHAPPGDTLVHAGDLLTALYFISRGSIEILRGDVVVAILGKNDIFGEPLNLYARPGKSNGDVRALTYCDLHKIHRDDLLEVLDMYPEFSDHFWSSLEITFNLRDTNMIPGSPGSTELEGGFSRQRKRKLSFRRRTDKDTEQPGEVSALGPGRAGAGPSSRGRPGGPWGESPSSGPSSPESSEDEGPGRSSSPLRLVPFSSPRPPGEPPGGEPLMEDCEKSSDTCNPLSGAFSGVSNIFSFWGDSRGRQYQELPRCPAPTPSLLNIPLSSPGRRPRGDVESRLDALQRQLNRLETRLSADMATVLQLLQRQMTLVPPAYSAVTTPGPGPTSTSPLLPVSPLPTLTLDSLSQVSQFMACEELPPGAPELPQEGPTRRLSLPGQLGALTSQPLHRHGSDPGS
# Chain of Cytochrome P450 3A4 (P08684 whole entry): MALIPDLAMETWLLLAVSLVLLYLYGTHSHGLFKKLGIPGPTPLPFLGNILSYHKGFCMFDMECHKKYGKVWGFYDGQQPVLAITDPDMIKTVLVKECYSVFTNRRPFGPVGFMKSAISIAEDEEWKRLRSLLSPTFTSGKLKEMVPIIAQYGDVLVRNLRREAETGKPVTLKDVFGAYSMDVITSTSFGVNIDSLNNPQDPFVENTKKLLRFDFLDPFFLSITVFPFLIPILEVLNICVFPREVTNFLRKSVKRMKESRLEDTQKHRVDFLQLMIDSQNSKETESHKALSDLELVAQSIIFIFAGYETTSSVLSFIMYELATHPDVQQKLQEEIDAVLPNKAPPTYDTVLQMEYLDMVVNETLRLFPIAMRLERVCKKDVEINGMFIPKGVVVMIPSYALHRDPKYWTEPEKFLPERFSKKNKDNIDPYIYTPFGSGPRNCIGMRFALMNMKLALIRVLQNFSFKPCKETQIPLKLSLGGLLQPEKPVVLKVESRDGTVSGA
# Chain of Cytochrome P450 2D6 (P10635 whole entry): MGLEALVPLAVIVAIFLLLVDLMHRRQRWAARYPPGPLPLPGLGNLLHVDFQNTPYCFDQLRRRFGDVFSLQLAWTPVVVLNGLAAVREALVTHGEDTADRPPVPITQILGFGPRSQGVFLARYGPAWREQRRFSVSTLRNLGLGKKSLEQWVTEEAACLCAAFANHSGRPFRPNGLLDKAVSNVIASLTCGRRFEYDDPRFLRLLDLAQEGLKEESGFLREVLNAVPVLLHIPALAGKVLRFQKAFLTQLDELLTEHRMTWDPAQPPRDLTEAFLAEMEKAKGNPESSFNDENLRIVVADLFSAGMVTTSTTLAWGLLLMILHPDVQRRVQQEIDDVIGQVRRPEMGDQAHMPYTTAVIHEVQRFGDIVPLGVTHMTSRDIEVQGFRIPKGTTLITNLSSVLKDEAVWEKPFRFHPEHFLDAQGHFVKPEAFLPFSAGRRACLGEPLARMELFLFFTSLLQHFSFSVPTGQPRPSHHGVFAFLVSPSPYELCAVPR
# Chain of Cytochrome P450 2C19 (P33261 whole entry): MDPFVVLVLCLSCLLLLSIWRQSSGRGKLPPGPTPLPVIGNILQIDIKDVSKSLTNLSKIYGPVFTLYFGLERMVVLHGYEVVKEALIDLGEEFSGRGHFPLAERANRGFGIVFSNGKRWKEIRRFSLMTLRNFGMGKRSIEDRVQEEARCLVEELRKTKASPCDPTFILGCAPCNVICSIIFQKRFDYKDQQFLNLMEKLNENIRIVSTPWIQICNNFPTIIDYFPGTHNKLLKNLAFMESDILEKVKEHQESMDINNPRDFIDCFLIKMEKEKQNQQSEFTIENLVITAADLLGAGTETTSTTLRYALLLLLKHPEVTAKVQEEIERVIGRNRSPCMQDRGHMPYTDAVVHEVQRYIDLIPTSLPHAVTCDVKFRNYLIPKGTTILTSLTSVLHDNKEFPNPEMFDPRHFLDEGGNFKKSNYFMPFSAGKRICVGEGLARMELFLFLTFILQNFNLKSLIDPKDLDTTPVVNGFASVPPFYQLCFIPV
# Chain of Cytochrome P450 2C9 (P11712 whole entry): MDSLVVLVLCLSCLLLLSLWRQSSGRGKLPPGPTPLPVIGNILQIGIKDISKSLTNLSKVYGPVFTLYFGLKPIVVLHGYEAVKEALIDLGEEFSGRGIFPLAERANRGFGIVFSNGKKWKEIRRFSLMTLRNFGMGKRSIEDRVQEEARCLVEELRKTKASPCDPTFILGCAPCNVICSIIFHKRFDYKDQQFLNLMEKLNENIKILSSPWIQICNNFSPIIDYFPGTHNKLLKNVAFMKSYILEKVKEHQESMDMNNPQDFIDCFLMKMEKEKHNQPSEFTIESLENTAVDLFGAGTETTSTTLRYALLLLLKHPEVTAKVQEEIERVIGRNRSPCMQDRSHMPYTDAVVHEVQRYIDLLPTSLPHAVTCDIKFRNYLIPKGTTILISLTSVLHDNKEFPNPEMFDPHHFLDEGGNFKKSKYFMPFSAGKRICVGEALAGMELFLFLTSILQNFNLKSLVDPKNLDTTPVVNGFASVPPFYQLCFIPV
smiles,measurement,setting,value
NNC(=O)c1ccncc1 [ISONIAZID],MIC50,[1],0.024 mg/L
same,MIC90,[1],0.034 mg/L
Cc1cc(F)ccc1-c1nc2c(s1)CN(C[C@@]1(C)Cn3cc([N+](=O)[O-])nc3O1)C2,Vd,[2],3.38 L/kg
same,Cmax,[3],0.201 µg/mL
same,half-life,[4],2.06 h
same,CC50,[5],> 32 mg/L
same,MIC,[6],< 0.013 mg/L
same,AUClast,[7]; mouse,1.441 µg·h/mL
same,F,"[8]; mouse, po, 5 mg/kg",20.5%
NC[C@H]1O[C@H](O[C@H]2[C@H](O)[C@@H](O[C@H]3O[C@H](CO)[C@@H](O)[C@H](N)[C@H]3O)[C@H](N)C[C@@H]2N)[C@H](O)[C@@H](O)[C@@H]1O [KANAMYCIN],MIC50,[1],1.22 mg/L
same,MIC90,[1],1.91 mg/L
CO[C@H]1/C=C/O[C@@]2(C)Oc3c(C)c(O)c4c(O)c(c(/C=N/N5CCN(C)CC5)c(O)c4c3C2=O)NC(=O)/C(C)=C\C=C\[C@H](C)[C@H](O)[C@@H](C)[C@@H](O)[C@@H](C)[C@H](OC(C)=O)[C@@H]1C [RIFAMPIN],Activity,[9],Active
same,MIC50,[1],0.035 mg/L
same,MIC90,[1],0.064 mg/L
C[C@]1(CN2Cc3nc(-c4ncc(F)cc4F)sc3C2)Cn2cc([N+](=O)[O-])nc2O1,clearance,[10],0.828 L/h/kg
same,Vd,[2],1.57 L/kg
same,Cmax,[3],1.01 µg/mL
same,half-life,[4],1.4 h
same,CC50,[5],> 32 mg/L
same,MIC,[6],0.06 mg/L
same,AUC(0-t),"[7]; CD-1, mouse",4.99 µg·h/mL
same,bioavailability,"[8]; CD-1, mouse",57.9%
C[C@]1(CN2CCc3nc(-c4ccc(F)cc4)ccc3C2)Cn2cc([N+](=O)[O-])nc2O1,half-life,[11],0.417 h
same,half-life,[12],0.367 h
same,MIC,[13],4.83 mg/L
same,CC50,[5],> 32 mg/L
same,MIC,[6],< 0.031 mg/L
same,half-life,[14],0.1 h
C[C@]1(COc2ccc(N3CCC(Oc4ccc(OC(F)(F)F)cc4)CC3)cc2)Cn2cc([N+](=O)[O-])nc2O1,IC50,Cytochrome P450 3A4,> 100 µM
same,fraction unbound,[15],0.005
same,fraction unbound,[16],0.005
same,fraction unbound,[17],0.004
same,half-life,[11],1.4 h
same,fraction unbound,[18],0.005
same,IC50,Cytochrome P450 1A2,> 100 µM
same,half-life,[12],> 2.42 h
same,MIC,[13],0.61 mg/L
same,Activity,[19],Dde
same,Papp A→B,[20],0.9 nm/s
same,IC50,Cytochrome P450 2C8,> 100 µM
same,IC50,Cytochrome P450 2D6,> 100 µM
same,CC50,[5],> 32 mg/L
same,IC50,Cytochrome P450 2C9,> 100 µM
same,Activity,[21],1 log10CFU
same,IC50,Cytochrome P450 2B6,> 100 µM
same,IC50,Cytochrome P450 2C19,> 100 µM
same,MIC,[6],0.006 mg/L
same,IC50,[22],> 30 µM
same,half-life,[14],> 2.42 h
same,MIC,[23],0.015 mg/L
same,MIC50,[1],0.002 mg/L
same,MIC90,[1],0.004 mg/L
